Measurements as given in US5089623A, “Certain imidate insecticides” (Imperial Chemical Industries Plc, priority 1990, dated 1992).

Legend:
Format in all cases: in vivo
[1] = system: Housefly [Musca domestica]; assay: Housefly insecticidal test (HF); conditions: per 25 female houseflies, 48 hours
[2] = system: Tobacco Budworm [Heliothis virescens (Fabricius)] eggs; assay: Tobacco budworm egg test (TBW-E); conditions: percent in solution
From the text: Eggs: Paper towel patches of 2-day old eggs of the tobacco budworm were dipped in acetone solutions of the test compound and placed in petri dishes containing a portion of larval rearing medium. […] Test concentrations ranged from 0.1% downward.

[3] = system: Cabbage Looper [Trichoplusia ni (Hubner)]; assay: Cabbage looper test (CL); conditions: second-instar larvae, 3-5 days, percent in solution
Method: Test compounds were diluted in a 50-50 acetone-water solution. Cotyledons of hyzini squash (Calabacita abobrinha), approximately 1×1.5 inches, were immersed in the test solutions for 2-3 seconds and placed on a wire screen to dry. The dried leaves were placed in petri dishes containing a moistened piece of filter paper and infested with 5 second-instar cabbage looper larvae. The dishes were placed in a high humidity chamber. Mortality of the larvae was recorded 3-5 days later. Test concentrations ranged from 0.1% downward. The LC-50 value is expressed below in Table 3 under the heading "CL" in terms of percent of the test compound in solution.

Compound	LC50 HF [1] [µg]	LC50 TBW E [2] [%]	LC50 CL [3] [%]
CC(C)C(=Nc1ccc(Br)cc1F)OCc1cccc(Oc2ccccc2)c1 [Compound 79]	6	0.05	0.003
CC(C)C(=Nc1cc(C(F)(F)F)ccc1F)OCc1cccc(Oc2ccccc2)c1 [Compound 84]	93	0.1	0.006
FC(F)(F)c1cccc(N=C(OCc2cccc(Oc3ccccc3)c2)C2CC2)c1 [Compound 86]	65	> 0.01	0.013
Cc1cc(N=C(OCc2cccc(Oc3ccccc3)c2)C(C)C)ccc1F [Compound 87]	5	0.03	0.004
Cc1ccc(Cl)c(N=C(OCc2cccc(Oc3ccccc3)c2)C(C)C)c1 [Compound 93]	64	> 0.1	0.005
Cc1ccc(N=C(OCc2cccc(Oc3ccccc3)c2)C(C)C)c(Cl)c1 [Compound 94]	44	0.075	0.0045
COc1cc(N=C(OCc2cccc(Oc3ccccc3)c2)C(C)C)c(OC)cc1Cl [Compound 99]	> 100	> 0.1	0.016
CCSc1ccc(N=C(OCc2cccc(Oc3ccccc3)c2)C(C)C)cc1Cl [Compound 103]	> 100	> 0.1	0.015
CCOC(=O)c1ccc(N=C(OCc2cccc(Oc3ccccc3)c2)C(C)C)cc1Cl [Compound 104]	> 100	> 0.1	0.004
CC(C)(C)C(=Nc1ccc(Cl)c([N+](=O)[O-])c1)OCc1cccc(Oc2ccccc2)c1 [Compound 105]	> 100	> 0.1	0.018
CC(C)(C)C(=Nc1ccc(Br)c(Cl)c1)OCc1cccc(Oc2ccccc2)c1 [Compound 106]	> 100	> 0.1	0.014
Cc1ccc(N=C(OCc2cccc(Oc3ccccc3)c2)C(C)(C)C)cc1Cl [Compound 107]	> 100	> 0.1	0.007
Cc1cc(Cl)ccc1N=C(OCc1cccc(Oc2ccccc2)c1)C(C)(C)C [Compound 109]	> 100	> 0.1	0.002
COc1ccc(N=C(OCc2cccc(Oc3ccc(F)cc3)c2)C(C)C)cc1Cl [Compound 110]	26	0.04	0.007
CC(C)(Cl)C(=Nc1ccc(Cl)c2ccccc12)OCc1cccc(Oc2ccccc2)c1 [Compound 111]	> 100	> 0.1	0.1
CCC(=Nc1ccc(F)c(Cl)c1)OCc1cccc(Oc2ccc(F)cc2)c1 [Compound 115]	10	0.075	0.0012
CC(Br)C(=Nc1ccc(F)c(Cl)c1)OCc1cccc(Oc2ccccc2)c1 (stereo not drawn) [Compound 118]	18	> 0.1	0.0013
CCCCC(=Nc1ccc(F)c(Cl)c1)OCc1cccc(Oc2ccccc2)c1 [Compound 121]	> 100	> 0.1	0.1
CCCC(=Nc1ccc(F)c(Cl)c1)OCc1cccc(Oc2ccccc2)c1 [Compound 123]	> 100	> 0.1	0.012
CC(C)C(=Nc1cccc(C#N)c1)OCc1cccc(Oc2ccccc2)c1 [Compound 126]	> 100	> 0.1	0.08
Cc1cc(N=C(OCc2cccc(Oc3ccccc3)c2)C(C)C)ccc1Br [Compound 127]	58	0.04	0.01
